Peptide text beside a SMILES is read from it. * marks the point of attachment. Dansyl = CN(C)c1cccc2c(S(=O)(=O)*)cccc12
Tested on: P100 membrane fractions derived from Caco-2 cells
Assay: Dansylated peptide ELISA: relative binding of PAX2 and HAX42 peptides to P100 (ratio to ZElan021)
Details: ratio to ZElan021 = 1.00
Protocol: The peptides and proteins were analyzed by a dansylated peptide ELISA method in which 96 well plates were coated overnight at 4° C. with 100 μl/well coating protein (normally 100 μg/ml P100 membrane fraction) in 0.05M carbonate buffer pH9.6. Nonspecific binding was blocked using 200 μl/well, 2% Marvel/PBS for 2 hours at 37° C. prior to incubation with dansylated peptides. The plates were washed three times with PBS/0.05% Tween 20 and after each subsequent incubation step. […] A buffer blank control was included to ensure that background binding to plastic was not due to the antibodies used in the assay system. […] The plates were then incubated with an anti-mouse X-HRP conjugated antibody (Southern Biotech 1060-05) at a 1:10,000 dilution in blocking solution, 100 μl/well for 1 hour at room temperature. Plates were developed using 75 μl/well Bionostics TMB substrate and incubated for approximately 10 minutes. The developing reaction was stopped using Bionostics Red Stop solution (25 μl/well), and the optical density of the plates was read at 650nm.

[1] = PAX2 peptides, first 20 μg/ml column
[2] = PAX2 peptides, first 50 μg/ml column
[3] = PAX2 peptides, second 20 μg/ml column
[4] = PAX2 peptides, second 50 μg/ml column
[5] = HAX42 peptides, first 50 μg/ml column
[6] = HAX42 peptides, second 50 μg/ml column

| Structure (SMILES) | Binding value at 20 μg/ml [1] | Binding value at 50 μg/ml [2] | Binding value at 20 μg/ml [3] | Binding value at 50 μg/ml [4] | Binding value at 20 μg/ml (HAX42 peptides) | Binding value at 50 μg/ml [5] | Binding value at 50 μg/ml [6] |
| --- | --- | --- | --- | --- | --- | --- | --- |
| C[C@H](NC(=O)[C@H](CC(N)=O)NC(=O)[C@@H](NC(=O)[C@@H](N)CCCCNS(=O)(=O)c1cccc2c(N(C)C)cccc12)[C@@H](C)O)C(=O)N[C@@H](CCCCN)C(=O)N[C@@H](Cc1c[nH]cn1)C(=O)N[C@@H](CO)C(=O)N[C@@H](CO)C(=O)N[C@@H](Cc1c[nH]cn1)C(=O)N[C@@H](CC(N)=O)C(N)=O [ZElan055] (H-K(Dansyl)TNAKHSSHN-NH2) | 0.99 | 1.10 | 0.73 | 0.59 |  |  |  |
| CC(C)C[C@H](NC(=O)[C@H](CCCNC(=N)N)NC(=O)[C@H](CCCNC(=N)N)NC(=O)[C@@H](N)CCCCNS(=O)(=O)c1cccc2c(N(C)C)cccc12)C(=O)N[C@@H](CCCNC(=N)N)C(=O)N[C@H](C(=O)N[C@@H](CCCNC(=N)N)C(=O)N[C@@H](CO)C(=O)N[C@@H](CCCNC(=N)N)C(=O)N1CCC[C@H]1C(=O)N[C@@H](CC(N)=O)C(N)=O)[C@@H](C)O [ZElan056] (H-K(Dansyl)RRLRTRSRPN-NH2) | 0.00 | 0.21 | 0.16 | 0.21 |  |  |  |
| CC(C)C[C@H](NC(=O)[C@H](CCCNC(=N)N)NC(=O)[C@H](CCCNC(=N)N)NC(=O)[C@@H](N)CCCCNS(=O)(=O)c1cccc2c(N(C)C)cccc12)C(=O)N[C@@H](CCCNC(=N)N)C(=O)N[C@H](C(=O)N[C@@H](CCCNC(=N)N)C(=O)N[C@@H](CO)C(=O)N[C@@H](CCCNC(=N)N)C(N)=O)[C@@H](C)O [ZElan057] (H-K(Dansyl)RRLRTRSR-NH2) | 0.08 | 0.56 |  | 0.25 |  |  |  |
| CC(C)C[C@H](NC(=O)[C@H](CCCNC(=N)N)NC(=O)[C@H](CCCNC(=N)N)NC(=O)[C@@H](N)CCCCNS(=O)(=O)c1cccc2c(N(C)C)cccc12)C(=O)N[C@@H](CCCNC(=N)N)C(=O)N[C@H](C(=O)N[C@@H](CCCNC(=N)N)C(N)=O)[C@@H](C)O [ZElan058, H2N—K(dns)RRLRTR—CONH2] (H-K(Dansyl)RRLRTR-NH2) | 0.05 | 0.47 |  | 0.16 |  |  |  |
| CC(C)C[C@H](NC(=O)[C@H](C)NC(=O)[C@H](Cc1c[nH]cn1)NC(=O)[C@H](CC(=O)O)NC(=O)[C@H](CO)NC(=O)[C@@H](N)CCCCNS(=O)(=O)c1cccc2c(N(C)C)cccc12)C(=O)NCC(=O)N[C@H](C(=O)N[C@@H](CC(N)=O)C(=O)N[C@@H](CC(C)C)C(=O)N[C@@H](CCCNC(=N)N)C(=O)N[C@@H](CO)C(=O)N[C@@H](CC(=O)O)C(=O)N[C@@H](CC(N)=O)C(=O)N[C@@H](C)C(=O)N[C@@H](CCCCN)C(=O)N[C@@H](CCC(=O)O)C(=O)N1CCC[C@H]1C(=O)NCC(=O)N[C@@H](CC(=O)O)C(=O)N[C@@H](Cc1ccc(O)cc1)C(=O)N[C@@H](CC(N)=O)C(=O)N[C@@H](CS)C(=O)N[C@@H](CS)C(=O)NCC(=O)N[C@@H](CC(N)=O)C(=O)NCC(N)=O)[C@@H](C)O [ZElan060] (H-K(Dansyl)SDHALGTNLRSDNAKEPGDYNCCGNG-NH2) |  |  |  |  | 0.44 | 0.56 | 0.43 |
| CC[C@H](C)[C@H](NC(=O)[C@H](C)NC(=O)[C@H](CO)NC(=O)[C@@H]1CCCN1C(=O)[C@H](CCCNC(=N)N)NC(=O)[C@H](CCCNC(=N)N)NC(=O)[C@H](CCCNC(=N)N)NC(=O)[C@H](CC(N)=O)NC(=O)[C@H](Cc1ccccc1)NC(=O)[C@@H](NC(=O)[C@H](CCCCN)NC(=O)[C@H](CCCNC(=N)N)NC(=O)CNC(=O)[C@@H](NC(=O)[C@H](CO)NC(=O)[C@H](CC(N)=O)NC(=O)CNC(=O)[C@H](CC(N)=O)NC(=O)CNC(=O)[C@H](CS)NC(=O)[C@H](CS)NC(=O)[C@H](CC(N)=O)NC(=O)[C@H](Cc1ccc(O)cc1)NC(=O)[C@H](CC(=O)O)NC(=O)CNC(=O)[C@@H](N)CCCCNS(=O)(=O)c1cccc2c(N(C)C)cccc12)[C@@H](C)O)C(C)C)C(=O)N1CCC[C@H]1C(=O)N[C@H](C(N)=O)[C@@H](C)O [ZElan061] (H-K(Dansyl)GDYNCCGNGNSTGRKVFNRRRPSAIPT-NH2) |  |  |  |  | 0.20 | 0.60 | 0.38 |
| CC(C)C[C@H](NC(=O)[C@H](C)NC(=O)[C@H](Cc1c[nH]cn1)NC(=O)[C@H](CC(=O)O)NC(=O)[C@H](CO)NC(=O)[C@@H](N)CCCCNS(=O)(=O)c1cccc2c(N(C)C)cccc12)C(=O)NCC(=O)N[C@H](C(=O)N[C@@H](CC(N)=O)C(=O)N[C@@H](CC(C)C)C(=O)N[C@@H](CCCNC(=N)N)C(=O)N[C@@H](CO)C(=O)N[C@@H](CC(=O)O)C(=O)N[C@@H](CC(N)=O)C(=O)N[C@@H](C)C(=O)N[C@@H](CCCCN)C(=O)N[C@@H](CCC(=O)O)C(=O)N1CCC[C@H]1C(=O)NCC(N)=O)[C@@H](C)O [ZElan062] (H-K(Dansyl)SDHALGTNLRSDNAKEPG-NH2) |  |  |  |  | 0.11 | 0.42 | 0.34 |
| CC(C)[C@H](NC(=O)[C@H](CCCCN)NC(=O)[C@H](CCCNC(=N)N)NC(=O)[C@@H](N)CCCCNS(=O)(=O)c1cccc2c(N(C)C)cccc12)C(=O)N[C@@H](Cc1ccccc1)C(=O)N[C@@H](CC(N)=O)C(=O)N[C@@H](CCCNC(=N)N)C(=O)N[C@@H](CCCNC(=N)N)C(=O)N[C@@H](CCCNC(=N)N)C(=O)N1CCC[C@H]1C(=O)N[C@@H](CO)C(N)=O [ZElan065] (H-K(Dansyl)RKVFNRRRPS-NH2) |  |  |  |  | 0.00 | 0.54 | 0.30 |
| CN(C)c1cccc2c(S(=O)(=O)NCCCC[C@H](N)C(=O)N[C@@H](CC(N)=O)C(=O)N[C@@H](CCCNC(=N)N)C(=O)N[C@@H](CCCNC(=N)N)C(=O)N[C@@H](CCCNC(=N)N)C(=O)N3CCC[C@H]3C(=O)N[C@@H](CO)C(N)=O)cccc12 [ZElan067, H2N—K(dns)NRRRPS—CONH2] (H-K(Dansyl)NRRRPS-NH2) |  |  |  |  | 0.08 | 0.52 | 0.40 |
| CC(C)C[C@H](NC(=O)[C@H](C)NC(=O)[C@H](Cc1c[nH]cn1)NC(=O)[C@H](CC(=O)O)NC(=O)[C@H](CO)NC(=O)[C@@H](N)CCCCNS(=O)(=O)c1cccc2c(N(C)C)cccc12)C(=O)NCC(=O)N[C@H](C(=O)N[C@@H](CC(N)=O)C(=O)N[C@@H](CC(C)C)C(=O)N[C@@H](CCCNC(=N)N)C(=O)N[C@@H](CO)C(=O)N[C@@H](CC(=O)O)C(=O)N[C@@H](CC(N)=O)C(=O)N[C@@H](C)C(=O)N[C@@H](CCCCN)C(=O)N[C@@H](CCC(=O)O)C(=O)N1CCC[C@H]1C(=O)NCC(=O)N[C@@H](CC(=O)O)C(=O)N[C@@H](Cc1ccc(O)cc1)C(=O)N[C@@H](CC(N)=O)C(=O)N[C@@H](CS)C(=O)N[C@@H](CS)C(=O)NCC(=O)N[C@@H](CC(N)=O)C(=O)NCC(=O)N[C@@H](CC(N)=O)C(=O)N[C@@H](CO)C(=O)N[C@H](C(N)=O)[C@@H](C)O)[C@@H](C)O [ZElan070] (H-K(Dansyl)SDHALGTNLRSDNAKEPGDYNCCGNGNST-NH2) |  |  |  |  | 0.59 | 0.97 | 0.39 |
| CC(C)C[C@H](NC(=O)[C@H](CC(N)=O)NC(=O)[C@@H](N)CCCCNS(=O)(=O)c1cccc2c(N(C)C)cccc12)C(=O)N[C@@H](CCCNC(=N)N)C(=O)N[C@@H](CO)C(=O)N[C@@H](CC(=O)O)C(=O)N[C@@H](CC(N)=O)C(=O)N[C@@H](C)C(=O)N[C@@H](CCCCN)C(=O)N[C@@H](CCC(=O)O)C(=O)N1CCC[C@H]1C(=O)NCC(=O)N[C@@H](CC(=O)O)C(=O)N[C@@H](Cc1ccc(O)cc1)C(=O)N[C@@H](CC(N)=O)C(=O)N[C@@H](CS)C(=O)N[C@@H](CS)C(=O)NCC(=O)N[C@@H](CC(N)=O)C(=O)NCC(=O)N[C@@H](CC(N)=O)C(=O)N[C@@H](CO)C(=O)N[C@H](C(=O)NCC(=O)N[C@@H](CCCNC(=N)N)C(=O)N[C@@H](CCCCN)C(=O)N[C@H](C(=O)N[C@@H](Cc1ccccc1)C(=O)N[C@@H](CC(N)=O)C(=O)N[C@@H](CCCNC(=N)N)C(N)=O)C(C)C)[C@@H](C)O [ZElan071] (H-K(Dansyl)NLRSDNAKEPGDYNCCGNGNSTGRKVFNR-NH2) |  |  |  |  | 1.22 | 0.89 | 0.75 |
| CC[C@H](C)[C@H](NC(=O)[C@H](C)NC(=O)[C@H](CO)NC(=O)[C@@H]1CCCN1C(=O)[C@H](CCCNC(=N)N)NC(=O)[C@H](CCCNC(=N)N)NC(=O)[C@H](CC(N)=O)NC(=O)[C@H](Cc1ccccc1)NC(=O)[C@@H](NC(=O)[C@H](CCCCN)NC(=O)[C@H](CCCNC(=N)N)NC(=O)CNC(=O)[C@@H](NC(=O)[C@H](CO)NC(=O)[C@H](CC(N)=O)NC(=O)CNC(=O)[C@H](CC(N)=O)NC(=O)CNC(=O)[C@H](CS)NC(=O)[C@H](CS)NC(=O)[C@H](CC(N)=O)NC(=O)[C@H](Cc1ccc(O)cc1)NC(=O)[C@H](CC(=O)O)NC(=O)CNC(=O)[C@@H]1CCCN1C(=O)[C@@H](N)CCCCNS(=O)(=O)c1cccc2c(N(C)C)cccc12)[C@@H](C)O)C(C)C)C(=O)N1CCC[C@H]1C(=O)N[C@H](C(N)=O)[C@@H](C)O [ZElan072] (H-K(Dansyl)PGDYNCCGNGNSTGRKVFNRRPSAIPT-NH2) |  |  |  |  | 0.83 | 0.61 | 0.88 |

Source: patent US6703362B1, “Random peptides that bind to gastro-intestinal tract (GIT) transport receptors and related methods” (Cytogen Corporation, priority 1997, dated 2004)
